Measured values from PMC5007443, “TNIK inhibition abrogates colorectal cancer stemness” (Nature Communications, 2016).

How the values were obtained:
DLD-1 cells = test: Limiting dilution analysis of sphere formation, DLD-1; assay type: cell-based, human
Description: One million HCT116 and DLD-1 cells were seeded onto 60-mm plates and treated with vehicle (DMSO) or compounds (0.1, 0.3 or 1.0 μM) for either 3 or 4 days. After washing off the compounds, the cells were dissociated to single cells in serum-free DMEM/F12 medium (Thermo Fisher Scientific) containing B27 (Thermo Fisher Scientific), 20 ng ml^−1 epidermal growth factor (EGF; Thermo Fisher Scientific), 10 ng ml^−1 basic fibroblast factor (bFGF; Thermo Fisher Scientific), 5 μg ml^−1 insulin (Thermo Fisher Scientific), 0.4% bovine serum albumin (Sigma-Aldrich) and 2 mM L-glutamine (Thermo Fisher Scientific). One hundred, 10 or 1 viable (determined by trypan-blue dye exclusion) cells were seeded into each well of a 96-well U-bottom PrimeSurface plate (Sumitomo Bakelite). Ten days later, the number of wells showing sphere formation was counted. The frequency of sphere-forming cells was calculated using ELDA software (http://bioinf.wehi.edu.au/software/elda/index.html) provided by the Walter and Eliza Hall Institute (Fig. 5c; Supplementary Table 2). Experiments were performed in triplicate and repeated at least two times.

[1] = test system: patient-derived colorectal cancer spheroids #19; test: ATP production of patient-derived spheroid #19; assay type: cell-based; settings: Homo sapiens, 72 h; spheroid #19, 3 days
Description: Cells were seeded at a density of 3,000 cells per well in 96-well plates. Twenty-four hours after seeding, the cells were exposed to serially diluted compounds (0.003, 0.01, 0.03, 0.1, 0.3, 1, 3 and 10 μM) and incubated for 72 h (Fig. 3a). Patient-derived colorectal cancer spheroids were dissociated into single cells with Accutase (Nacalai Tesque) and seeded at a density of 3,000 cells per well into Ultra-Low attachment multiwall 96-well plates (Corning; Fig. 6d). ATP was measured with a CellTiter-Glo Luminescent Cell Viability Assay kit (Promega). Experiments were performed in triplicate and repeated at least two times.

IKKβ = IKKβ (Homo sapiens, UniProt O14920); test: Kinase selectivity profiling, I-kappa-B kinase-β; assay type: biochemical; settings: read-out: Percentage inhibition of IKKβ
Description: (§1) The selectivity of compounds against a panel of 50 human protein kinases was assessed using a non-radiometric assay.

MAPKAPK2 = MAPKAPK2 (Homo sapiens, UniProt P49137); test: Kinase selectivity profiling, Mitogen-activated protein kinase-activated protein kinase 2; assay type: biochemical; settings: read-out: Percentage inhibition of MAPKAPK2
Description: as §1

SRC = SRC (Homo sapiens, UniProt P12931); test: Kinase selectivity profiling, v-Src sarcoma viral oncogene homolog; assay type: biochemical; settings: read-out: Percentage inhibition of SRC
Description: as §1

IGF1R = IGF1R (Homo sapiens, UniProt P08069); test: Kinase selectivity profiling, Insulin-like growth factor 1 receptor; assay type: biochemical; settings: read-out: Percentage inhibition of IGF1R
Description: as §1

AKT1 = AKT1 (Homo sapiens, UniProt P31749); test: Kinase selectivity profiling, v-Akt murine thymoma viral oncogene homolog 1; assay type: biochemical; settings: read-out: Percentage inhibition of AKT1
Description: as §1

PKACα = PKACα (Homo sapiens, UniProt P17612); test: Kinase selectivity profiling, cAMP-dependent protein kinase, catalytic subunit α; assay type: biochemical; settings: read-out: Percentage inhibition of PKACα
Description: as §1

EPHA4 = EPHA4 (Homo sapiens, UniProt P54764); test: Kinase selectivity profiling, EPH receptor A4; assay type: biochemical; settings: read-out: Percentage inhibition of EPHA4
Description: as §1

PAK2 = PAK2 (Homo sapiens, UniProt Q13177); test: Kinase selectivity profiling, P21 protein (Cdc42/Rac)-activated kinase 2; assay type: biochemical; settings: read-out: Percentage inhibition of PAK2
Description: as §1

AMPKα1/β1/γ1 = AMPKα1/β1/γ1 (Homo sapiens, UniProt Q13131); test: Kinase selectivity profiling, AMP-activated protein kinase; assay type: biochemical; settings: read-out: Percentage inhibition of AMPKα1/β1/γ1
Description: as §1

SYK = SYK (Homo sapiens, UniProt P43405); test: Kinase selectivity profiling, Spleen tyrosine kinase; assay type: biochemical; settings: read-out: Percentage inhibition of SYK
Description: as §1

CaMK4 = CaMK4 (Homo sapiens, UniProt Q16566); test: Kinase selectivity profiling, Calcium/calmodulin-dependent protein kinase IV; assay type: biochemical; settings: read-out: Percentage inhibition of CaMK4
Description: as §1

HCT116 cells = test: Soft-agar colony-formation assay; assay type: cell-based; settings: Homo sapiens, HCT-116, 336 h; HCT116, 14 days
Description: One milliliter of 0.33% agar (Lonza) in culture medium containing 1.5 × 10^4 cells was plated onto 1 ml of solidified base agar (0.5%) in each well of six-well clusters. The top agar layer was covered with culture medium containing serially diluted compounds. The medium was replaced every three days. Cell number was determined colorimetrically at 450–650 nm using the Cell Count Reagent SF (Nacalai Tesque). IC50 values were obtained by fitting a four-parameter dose–response curve to normalized data using GraphPad Prism version 5 (GraphPad software; Fig. 3b). Experiments were performed in triplicate and repeated at least two times.

[2] = DLD-1, 3-day treatment, 0.1 μM, 1 cell per well
[3] = DLD-1, 3-day treatment, 0.1 μM, 10 cells per well
[4] = DLD-1, 3-day treatment, 0.1 μM, 100 cells per well
[5] = DLD-1, 3-day treatment, 0.3 μM, 1 cell per well
[6] = DLD-1, 3-day treatment, 0.3 μM, 10 cells per well
[7] = DLD-1, 3-day treatment, 0.3 μM, 100 cells per well
[8] = DLD-1, 3-day treatment, 1.0 μM, 1 cell per well
[9] = DLD-1, 3-day treatment, 1.0 μM, 10 cells per well
[10] = DLD-1, 3-day treatment, 1.0 μM, 100 cells per well
[11] = DLD-1, 4-day treatment, 0.1 μM, 1 cell per well
[12] = DLD-1, 4-day treatment, 0.1 μM, 10 cells per well
[13] = DLD-1, 4-day treatment, 0.1 μM, 100 cells per well
[14] = DLD-1, 4-day treatment, 0.3 μM, 1 cell per well
[15] = DLD-1, 4-day treatment, 0.3 μM, 10 cells per well
[16] = DLD-1, 4-day treatment, 0.3 μM, 100 cells per well
[17] = DLD-1, 4-day treatment, 1.0 μM, 1 cell per well
[18] = DLD-1, 4-day treatment, 1.0 μM, 10 cells per well
[19] = DLD-1, 4-day treatment, 1.0 μM, 100 cells per well

Chain of IKKβ (O14920 whole entry): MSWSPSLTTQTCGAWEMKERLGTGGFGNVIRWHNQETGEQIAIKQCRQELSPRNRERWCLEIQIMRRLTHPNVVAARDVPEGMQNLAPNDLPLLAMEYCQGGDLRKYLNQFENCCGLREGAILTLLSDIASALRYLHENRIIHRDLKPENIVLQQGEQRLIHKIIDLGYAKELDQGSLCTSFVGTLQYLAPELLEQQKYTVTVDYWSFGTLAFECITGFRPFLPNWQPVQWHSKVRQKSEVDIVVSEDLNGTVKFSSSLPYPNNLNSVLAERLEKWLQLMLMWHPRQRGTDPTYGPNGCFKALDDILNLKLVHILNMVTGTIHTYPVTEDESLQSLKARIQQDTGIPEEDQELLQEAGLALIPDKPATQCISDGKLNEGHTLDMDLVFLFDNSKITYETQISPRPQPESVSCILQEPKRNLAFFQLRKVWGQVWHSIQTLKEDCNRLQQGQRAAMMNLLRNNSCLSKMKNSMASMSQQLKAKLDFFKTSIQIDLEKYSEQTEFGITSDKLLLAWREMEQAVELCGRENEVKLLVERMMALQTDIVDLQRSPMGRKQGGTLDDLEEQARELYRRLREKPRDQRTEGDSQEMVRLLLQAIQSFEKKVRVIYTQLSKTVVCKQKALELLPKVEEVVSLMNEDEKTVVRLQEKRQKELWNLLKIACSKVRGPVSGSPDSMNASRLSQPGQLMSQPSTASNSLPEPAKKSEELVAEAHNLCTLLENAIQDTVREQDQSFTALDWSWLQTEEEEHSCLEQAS
Chain of MAPKAPK2 (P49137 whole entry): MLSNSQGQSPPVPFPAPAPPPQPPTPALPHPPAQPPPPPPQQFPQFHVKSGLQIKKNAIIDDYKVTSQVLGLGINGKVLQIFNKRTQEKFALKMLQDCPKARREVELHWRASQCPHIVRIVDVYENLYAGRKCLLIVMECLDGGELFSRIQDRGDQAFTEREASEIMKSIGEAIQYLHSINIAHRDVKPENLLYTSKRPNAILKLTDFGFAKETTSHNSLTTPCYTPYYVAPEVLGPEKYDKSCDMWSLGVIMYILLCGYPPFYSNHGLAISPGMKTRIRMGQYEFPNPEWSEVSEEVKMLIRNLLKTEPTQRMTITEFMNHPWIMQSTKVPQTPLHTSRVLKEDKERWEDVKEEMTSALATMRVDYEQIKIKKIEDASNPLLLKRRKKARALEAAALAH
Chain of AMPKα1/β1/γ1 (Q13131 whole entry): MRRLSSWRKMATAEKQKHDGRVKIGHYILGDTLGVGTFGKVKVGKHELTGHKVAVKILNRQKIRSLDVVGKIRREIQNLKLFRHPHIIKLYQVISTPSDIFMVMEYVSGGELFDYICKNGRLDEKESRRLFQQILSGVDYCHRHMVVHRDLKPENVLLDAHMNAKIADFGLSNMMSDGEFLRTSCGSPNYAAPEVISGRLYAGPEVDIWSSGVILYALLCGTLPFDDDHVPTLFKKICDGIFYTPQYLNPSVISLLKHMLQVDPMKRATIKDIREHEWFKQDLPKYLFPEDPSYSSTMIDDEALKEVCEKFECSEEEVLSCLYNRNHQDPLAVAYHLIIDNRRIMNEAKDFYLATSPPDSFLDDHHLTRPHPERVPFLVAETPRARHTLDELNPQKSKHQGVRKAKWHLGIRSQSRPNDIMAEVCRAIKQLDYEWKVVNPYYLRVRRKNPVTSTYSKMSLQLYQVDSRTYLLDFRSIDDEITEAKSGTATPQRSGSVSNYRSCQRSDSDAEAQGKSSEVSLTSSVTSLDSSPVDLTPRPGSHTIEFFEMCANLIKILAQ
Chain of AMPKα1/β1/γ1 (Q9Y478 whole entry partner): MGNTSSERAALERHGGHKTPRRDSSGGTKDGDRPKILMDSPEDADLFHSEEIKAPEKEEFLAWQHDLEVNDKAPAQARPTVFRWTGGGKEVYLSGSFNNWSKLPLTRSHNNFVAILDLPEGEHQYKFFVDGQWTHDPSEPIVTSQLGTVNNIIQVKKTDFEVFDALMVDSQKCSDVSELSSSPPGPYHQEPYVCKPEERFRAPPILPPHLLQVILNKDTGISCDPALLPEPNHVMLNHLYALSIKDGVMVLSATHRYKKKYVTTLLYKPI
Chain of AMPKα1/β1/γ1 (P54619 whole entry partner): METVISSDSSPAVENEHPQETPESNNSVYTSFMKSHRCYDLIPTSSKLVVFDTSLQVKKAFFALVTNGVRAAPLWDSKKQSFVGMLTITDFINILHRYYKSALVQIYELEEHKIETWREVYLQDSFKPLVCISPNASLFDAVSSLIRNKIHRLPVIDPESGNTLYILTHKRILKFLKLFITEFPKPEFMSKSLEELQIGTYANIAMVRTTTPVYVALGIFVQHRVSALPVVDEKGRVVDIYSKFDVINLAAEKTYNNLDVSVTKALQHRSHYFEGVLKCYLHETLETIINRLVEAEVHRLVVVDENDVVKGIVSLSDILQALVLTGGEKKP
Chain of AKT1 (P31749 whole entry): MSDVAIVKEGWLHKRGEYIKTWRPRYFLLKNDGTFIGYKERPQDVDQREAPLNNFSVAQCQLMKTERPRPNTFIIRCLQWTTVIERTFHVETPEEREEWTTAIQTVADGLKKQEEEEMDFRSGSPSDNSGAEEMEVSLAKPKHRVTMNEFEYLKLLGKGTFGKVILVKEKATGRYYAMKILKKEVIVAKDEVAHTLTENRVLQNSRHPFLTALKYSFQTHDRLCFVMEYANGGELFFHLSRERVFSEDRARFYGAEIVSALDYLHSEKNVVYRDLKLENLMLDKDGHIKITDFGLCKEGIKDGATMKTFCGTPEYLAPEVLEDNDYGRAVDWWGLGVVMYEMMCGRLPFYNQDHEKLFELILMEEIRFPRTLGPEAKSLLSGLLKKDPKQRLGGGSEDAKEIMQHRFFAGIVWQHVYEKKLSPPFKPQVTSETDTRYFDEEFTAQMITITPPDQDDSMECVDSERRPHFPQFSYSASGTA
Chain of IGF1R (P08069 31-1367): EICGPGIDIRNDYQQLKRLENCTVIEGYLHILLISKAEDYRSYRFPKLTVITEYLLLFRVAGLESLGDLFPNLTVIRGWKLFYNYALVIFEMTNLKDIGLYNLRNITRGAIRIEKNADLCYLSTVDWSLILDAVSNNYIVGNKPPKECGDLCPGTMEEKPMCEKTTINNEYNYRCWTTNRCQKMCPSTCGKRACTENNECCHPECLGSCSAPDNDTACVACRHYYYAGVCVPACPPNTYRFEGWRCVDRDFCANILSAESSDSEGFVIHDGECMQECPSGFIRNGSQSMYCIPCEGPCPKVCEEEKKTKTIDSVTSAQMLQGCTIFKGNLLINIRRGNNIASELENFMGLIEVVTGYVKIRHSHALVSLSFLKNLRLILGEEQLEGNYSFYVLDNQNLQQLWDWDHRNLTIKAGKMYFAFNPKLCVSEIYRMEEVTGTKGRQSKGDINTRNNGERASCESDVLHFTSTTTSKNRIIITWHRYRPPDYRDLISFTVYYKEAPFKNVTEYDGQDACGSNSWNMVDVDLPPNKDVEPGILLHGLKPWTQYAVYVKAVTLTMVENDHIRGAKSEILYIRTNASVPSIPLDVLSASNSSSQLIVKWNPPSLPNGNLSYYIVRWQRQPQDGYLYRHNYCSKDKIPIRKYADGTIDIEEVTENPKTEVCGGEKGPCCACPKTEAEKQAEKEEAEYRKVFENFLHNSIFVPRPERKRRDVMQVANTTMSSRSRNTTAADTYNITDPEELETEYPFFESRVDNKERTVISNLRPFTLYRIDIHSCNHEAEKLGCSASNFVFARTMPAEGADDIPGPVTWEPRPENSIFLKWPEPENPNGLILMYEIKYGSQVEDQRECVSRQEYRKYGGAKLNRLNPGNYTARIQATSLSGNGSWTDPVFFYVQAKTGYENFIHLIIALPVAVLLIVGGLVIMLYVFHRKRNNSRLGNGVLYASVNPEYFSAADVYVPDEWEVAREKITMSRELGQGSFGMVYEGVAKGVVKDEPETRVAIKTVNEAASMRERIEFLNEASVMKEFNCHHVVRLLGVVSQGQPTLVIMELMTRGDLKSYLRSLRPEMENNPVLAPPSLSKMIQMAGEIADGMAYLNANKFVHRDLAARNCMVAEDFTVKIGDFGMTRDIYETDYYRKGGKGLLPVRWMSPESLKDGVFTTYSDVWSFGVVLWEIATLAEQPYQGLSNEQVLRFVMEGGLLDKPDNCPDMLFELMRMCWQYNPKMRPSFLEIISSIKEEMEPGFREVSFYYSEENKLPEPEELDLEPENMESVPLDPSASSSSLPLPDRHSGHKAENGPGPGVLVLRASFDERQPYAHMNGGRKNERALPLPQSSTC
Chain of CaMK4 (Q16566 whole entry): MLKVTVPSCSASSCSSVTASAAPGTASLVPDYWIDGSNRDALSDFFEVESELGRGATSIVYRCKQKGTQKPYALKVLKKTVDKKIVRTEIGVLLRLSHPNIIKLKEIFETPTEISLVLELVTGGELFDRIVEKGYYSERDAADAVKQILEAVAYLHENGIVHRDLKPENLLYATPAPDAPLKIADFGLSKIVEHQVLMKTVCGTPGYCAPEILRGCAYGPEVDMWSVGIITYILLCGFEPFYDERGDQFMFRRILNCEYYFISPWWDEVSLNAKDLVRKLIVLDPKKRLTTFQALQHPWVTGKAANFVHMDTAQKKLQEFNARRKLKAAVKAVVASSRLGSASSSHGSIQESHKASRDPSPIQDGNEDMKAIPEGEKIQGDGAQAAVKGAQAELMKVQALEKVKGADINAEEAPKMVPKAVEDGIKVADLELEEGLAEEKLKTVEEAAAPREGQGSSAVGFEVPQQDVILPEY

Row | SMILES | Sphere-containing wells/total wells (DLD-1 cells; [2]) | Sphere-containing wells/total wells (DLD-1 cells; [3]) | Sphere-containing wells/total wells (DLD-1 cells; [4]) | Sphere-containing wells/total wells (DLD-1 cells; [5]) | Sphere-containing wells/total wells (DLD-1 cells; [6]) | Sphere-containing wells/total wells (DLD-1 cells; [7]) | Sphere-containing wells/total wells (DLD-1 cells; [8]) | Sphere-containing wells/total wells (DLD-1 cells; [9]) | Sphere-containing wells/total wells (DLD-1 cells; [10]) | Sphere-containing wells/total wells (DLD-1 cells; [11]) | Sphere-containing wells/total wells (DLD-1 cells; [12]) | Sphere-containing wells/total wells (DLD-1 cells; [13]) | Sphere-containing wells/total wells (DLD-1 cells; [14]) | Sphere-containing wells/total wells (DLD-1 cells; [15]) | Sphere-containing wells/total wells (DLD-1 cells; [16]) | Sphere-containing wells/total wells (DLD-1 cells; [17]) | Sphere-containing wells/total wells (DLD-1 cells; [18]) | Sphere-containing wells/total wells (DLD-1 cells; [19]) | IC50 [1] [nM] | inhibition at 0.1 µM (IKKβ) [%] | other results
1 | O[C@H]1CC[C@@H](Oc2cccc3cnc(Nc4ccc5nc[nH]c5c4)nc23)CC1 [NCB-0846, cis-4-(2-(3H-benzo[d]imidazol-5-ylamino)quinazolin-8-yloxy)cyclohexanol] | 55/96 | 95/96 | 96/96 | 23/96 | 86/96 | 96/96 | 3/96 | 25/96 | 77/96 | 39/96 | 92/96 | 96/96 | 46/96 | 90/96 | 95/96 | 7/96 | 34/96 | 96/96 | 620 | 6.8 | sphere formation activity (DLD-1 cells; DLD-1, short-term (3–4 days) treatment): significantly abrogated; inhibition at 0.1 µM (MAPKAPK2): -5.8%; inhibition at 0.1 µM (SRC): 19%; inhibition at 0.1 µM (IGF1R): 10.7%; inhibition at 0.1 µM (AKT1): -3.4%; inhibition at 0.1 µM (PKACα): 0.9%; inhibition at 0.1 µM (EPHA4): 5.5%; inhibition at 0.1 µM (PAK2): -7.8%; inhibition at 0.1 µM (AMPKα1/β1/γ1): 31.5%; inhibition at 0.1 µM (SYK): 7.6%; inhibition at 0.1 µM (CaMK4): -1.5%; IC50 (HCT116 cells): 190 nM
2 | O[C@H]1CC[C@H](Oc2cccc3cnc(Nc4ccc5nc[nH]c5c4)nc23)CC1 [NCB-0970] | 40/96 | 96/96 | 96/96 | 51/96 | 95/96 | 96/96 | 16/96 | 75/96 | 95/96 | 55/96 | 95/96 | 96/96 | 65/96 | 94/96 | 96/96 | 45/96 | 95/96 | 96/96 | > 3000 | 7.9 | inhibition at 0.1 µM (MAPKAPK2): -9.3%; inhibition at 0.1 µM (SRC): 14.4%; inhibition at 0.1 µM (IGF1R): 1.2%; inhibition at 0.1 µM (AKT1): -4.4%; inhibition at 0.1 µM (PKACα): -4.4%; inhibition at 0.1 µM (EPHA4): 2.3%; inhibition at 0.1 µM (PAK2): -17.4%; inhibition at 0.1 µM (AMPKα1/β1/γ1): 9.3%; inhibition at 0.1 µM (SYK): 14.2%; inhibition at 0.1 µM (CaMK4): -4.1%; IC50 (HCT116 cells): 3850 nM
